#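 In this assay, cells in 96-well plates receive the compound at five concentrations for 48 hours. Endpoints are linearly interpolated between the surrounding concentrations. GI50 = concentration required for 50% inhibition of growth. At the TGI there is no net growth.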
# Columns and labels:
# Assay in all cases: inhibition of tumour cell growth, NCI panel, 48 h
# [1] = system: HS 578T breast
# [2] = system: A549 NSCLC
# [3] = system: LOX IMVI melanoma
# [4] = system: HCT-15 colon
# [5] = system: MDA-MB-435
# [6] = system: PC-3 prostate
# [7] = system: BT-549 breast
# [8] = system: SK-MEL-28 melanoma
# [9] = system: CCRF-CEM leukemia
# [10] = system: NCI-H226 lung
# [11] = system: UACC-62 melanoma
# [12] = system: SF-539 CNS
# [13] = system: SF-268 CNS
# [14] = system: MCF7 breast
# [15] = system: SK-OV-3 ovarian
# [16] = system: HT29 colon
# [17] = system: TK-10 renal
# [18] = system: HL-60(TB) leukemia
# [19] = system: HCT-116 colon
# [20] = system: SF-295 CNS
# [21] = system: NCI-H23 lung
# [22] = system: HOP-62 NSCLC
# [23] = system: NCI-H460 lung
# [24] = system: OVCAR-8 ovarian
# [25] = system: HCC-2998 colon
# [26] = system: UACC-257 melanoma
# [27] = system: OVCAR-5 ovarian
# [28] = system: OVCAR-4 ovarian
# [29] = system: DU-145 prostate
# [30] = system: HOP-92 NSCLC
# [31] = system: ACHN renal
# [32] = system: CAKI-1 renal
# [33] = system: SNB-75 CNS
# [34] = system: MDA-MB-231 breast
# [35] = system: 786-0 renal
# [36] = system: NCI-H522 lung
# [37] = system: RPMI-8226 leukemia
# [38] = system: T-47D breast
# [39] = system: RXF 393 renal
# [40] = system: SK-MEL-5 melanoma
# [41] = system: COLO 205 colon
# [42] = system: SN12C renal
# [43] = system: NCI/ADR-RES ovarian
# [44] = system: M14 melanoma
# [45] = system: SW-620 colon
# [46] = system: U251 CNS
# [47] = system: MOLT-4 leukemia
# [48] = system: EKVX NSCLC
# [49] = system: SNB-19 CNS
# [50] = system: SR leukemia
# [51] = system: MALME-3M melanoma
# [52] = system: K-562 leukemia
# [53] = system: OVCAR-3 ovarian
# [54] = system: A498 renal
# [55] = system: KM12 colon
# [56] = system: IGROV1 ovarian
# [57] = system: SK-MEL-2 melanoma
# [58] = system: UO-31 renal
smiles,measurement,setting,value
O=C(CC12CC3CC(CC(C3)C1)C2)NCCOCCOCCOCCNC(=O)c1cc2c(o1)C(=O)c1ccccc1C2=O,GI50,[1],1990 nM
same,TGI,[1],6.59 µM
same,GI50,[2],331 nM
same,TGI,[2],1180 nM
same,GI50,[3],712 nM
same,TGI,[3],2400 nM
same,GI50,[4],1430 nM
same,TGI,[4],3.31 µM
same,GI50,[5],200 nM
same,TGI,[5],392 nM
same,GI50,[6],1790 nM
same,TGI,[6],16.1 µM
same,GI50,[7],1330 nM
same,TGI,[7],2680 nM
same,GI50,[8],1700 nM
same,TGI,[8],3.27 µM
same,GI50,[9],2720 nM
same,TGI,[9],20.7 µM
same,GI50,[10],1750 nM
same,TGI,[10],4 µM
same,GI50,[11],343 nM
same,TGI,[11],1190 nM
same,GI50,[12],1440 nM
same,TGI,[12],2780 nM
same,GI50,[13],2170 nM
same,TGI,[13],5.59 µM
same,GI50,[14],808 nM
same,TGI,[14],2730 nM
same,GI50,[15],2550 nM
same,TGI,[15],6.06 µM
same,GI50,[16],2460 nM
same,TGI,[16],6.36 µM
same,GI50,[17],3.14 µM
same,TGI,[17],5.78 µM
same,GI50,[18],1400 nM
same,TGI,[18],4.98 µM
same,GI50,[19],1870 nM
same,TGI,[19],6.33 µM
same,GI50,[20],1480 nM
same,TGI,[20],2850 nM
same,GI50,[21],173 nM
same,TGI,[21],1090 nM
same,GI50,[22],1890 nM
same,TGI,[22],3.33 µM
same,GI50,[23],398 nM
same,TGI,[23],1440 nM
same,GI50,[24],1150 nM
same,TGI,[24],10.6 µM
same,GI50,[25],1890 nM
same,TGI,[25],3.6 µM
same,GI50,[26],1220 nM
same,TGI,[26],2520 nM
same,GI50,[27],1750 nM
same,TGI,[27],3.17 µM
same,GI50,[28],1120 nM
same,TGI,[28],2330 nM
same,GI50,[29],407 nM
same,TGI,[29],1280 nM
same,GI50,[30],2450 nM
same,TGI,[30],7.3 µM
same,GI50,[31],1510 nM
same,TGI,[31],3.12 µM
same,GI50,[32],1930 nM
same,TGI,[32],5.74 µM
same,GI50,[33],2020 nM
same,TGI,[33],3.51 µM
same,GI50,[34],2430 nM
same,TGI,[34],9.81 µM
same,GI50,[35],2550 nM
same,TGI,[35],8.87 µM
same,GI50,[36],1540 nM
same,TGI,[36],3.51 µM
same,GI50,[37],1570 nM
same,TGI,[37],4.61 µM
same,GI50,[38],1740 nM
same,TGI,[38],5.86 µM
same,GI50,[39],1550 nM
same,TGI,[39],2950 nM
same,GI50,[40],181 nM
same,TGI,[40],343 nM
same,GI50,[41],1630 nM
same,TGI,[41],3.33 µM
same,GI50,[42],1030 nM
same,TGI,[42],2260 nM
same,GI50,[43],2470 nM
same,TGI,[43],7.65 µM
same,GI50,[44],222 nM
same,TGI,[44],491 nM
same,GI50,[45],1680 nM
same,TGI,[45],4.61 µM
same,GI50,[46],1530 nM
same,TGI,[46],3.09 µM
same,GI50,[47],2020 nM
same,TGI,[47],6.22 µM
same,GI50,[48],2230 nM
same,TGI,[48],5.29 µM
same,GI50,[49],1320 nM
same,TGI,[49],7.63 µM
same,GI50,[50],1670 nM
same,TGI,[50],8.76 µM
same,GI50,[51],157 nM
same,TGI,[51],328 nM
same,GI50,[52],1320 nM
same,TGI,[52],5.32 µM
same,GI50,[53],395 nM
same,TGI,[53],1790 nM
same,GI50,[54],1590 nM
same,TGI,[54],3.12 µM
same,GI50,[55],2870 nM
same,TGI,[55],10.3 µM
same,GI50,[56],1660 nM
same,TGI,[56],4.6 µM
same,GI50,[57],1640 nM
same,TGI,[57],3.93 µM
same,GI50,[58],1510 nM
same,TGI,[58],3.13 µM
